# Test results taken from patent US12643858B2 (Inipharm, Inc., priority 2020, dated 2026).
# Biological target: T1, HSD17B13 enzyme (Homo sapiens, UniProt Q7Z5P4)
# T1 construct: His; made in house; host or cells: E. coli
# T1 sequence (Q7Z5P4 20-300): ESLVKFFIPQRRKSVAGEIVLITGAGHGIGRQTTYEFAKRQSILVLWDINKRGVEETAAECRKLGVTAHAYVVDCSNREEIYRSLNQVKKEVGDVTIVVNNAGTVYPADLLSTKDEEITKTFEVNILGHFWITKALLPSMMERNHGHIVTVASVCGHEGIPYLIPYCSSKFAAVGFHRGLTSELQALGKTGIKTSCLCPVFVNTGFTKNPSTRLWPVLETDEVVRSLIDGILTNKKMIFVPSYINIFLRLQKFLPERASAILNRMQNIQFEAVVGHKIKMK
# Assay: NADH detection assay (fluorescence based LTB3 assay) for HSD17B13 activity
# Format: biochemical
# Details: substrate 25 μM LTB3, 3 mM NAD+, 125 nM HSD17B13 enzyme, 1 hour at 26.5° C.
# Protocol: Example A: NADH Detection Assay for Evaluation of HSD17ß13 Activity and Identification of Inhibitors
# The fluorescence based Leukotriene B3 (LTB3) assay monitors the fluorescence of NADH, which is generated from NAD+ during the dehydrogenation of the substrate LTB3. The reactions were performed in a 384-well plates (Greiner; #655076) in a 20 μl reaction volume containing the following reagents (final concentrations): 25 μM LTB3 (Cayman; #20109); 3 mM NAD+ (Sigma; #N0623); 125 nM HSD17B13 enzyme (in-house; E. coli expressed His-tagged, purified, soluble protein); […] potassium phosphate buffer, pH 7.4; and 1% DMSO. Reactions were initiated by co-addition of NAD+ and enzyme, and monitored for 1 hour at 26.5° C. Generation of NADH was measured as the fluorescence signal (Excitation at 340 nm and Emission at 445 nm) at 1 hour minus the baseline fluorescence at t=0. Fluorescence signals in the absence of LTB3 (negative control values), were subtracted from all values so that the results reflected substrate-dependent production of NADH. NADH standards were included to allow the conversion of relative fluorescence units into rates of enzyme activity. Enzyme activity in the presence of test compounds was expressed as a percentage of the uninhibited enzyme activity, and plotted versus inhibitor concentration. Non-linear regression was performed using a four-parameter logistic model and GraphPad Prism software (GraphPad Software, La Jolla, CA). Ten concentrations of inhibitor were tested (in the range of 30 μM-2.5 nM), and two independent assessments were performed at each concentration.
row,IC50,SMILES
1,≤ 5 µM,"CN1C(=O)COc2cc(-c3cccc(Oc4ccc(F)c(O)c4)n3)ccc21 [Example 53, 7-(6-(4-fluoro-3-hydroxyphenoxy)pyridin-2-yl)-4-methyl-2H-benzo[b][1,4]oxazin-3(4H)-one]"
2,≤ 5 µM,"O=S1(=O)CCN(c2ccc(-c3cccc(Oc4ccc(F)c(O)c4)n3)cc2)CC1 [Example 31, 4-(4-(6-(4-fluoro-3-hydroxyphenoxy)pyridin-2-yl)phenyl)thiomorpholine 1,1-dioxide]"
3,> 30 µM,"O=S(=O)(Nc1cccc(Oc2cccc(-c3cccc(O)c3F)n2)c1)C1CC1 [Example 93, N-(3-{[6-(2-fluoro-3-hydroxyphenyl)pyridin-2-yl]oxy}phenyl)cyclopropane-sulfonamide]"
4,> 30 µM,"NS(=O)(=O)Nc1cc(Oc2cccc(-c3cccc(O)c3F)n2)ccc1F [Example 30, N-(2-fluoro-5-{[6-(2-fluoro-3-hydroxyphenyl)pyridin-2-yl]oxy}phenyl)aminosulfonamide]"
5,≤ 5 µM,"CC(=O)Nc1nc2cc(-c3cccc(Oc4ccc(F)c(O)c4)n3)ccc2[nH]1 [Example 26, N-(5-(6-(4-fluoro-3-hydroxyphenoxy)pyridin-2-yl)-1H-benzo [d]imidazol-2-yl)acetamide]"
6,> 30 µM,"N#Cc1ccc(-c2cccc(Oc3ccc(F)c(O)c3)n2)c(F)c1 [Example 92, 3-fluoro-4-(6-(4-fluoro-3-hydroxyphenoxy)pyridin-2-yl)benzonitrile]"
7,5 to 10 µM,"Oc1cc(Oc2cccc(-c3ccc(F)c(Cl)c3)n2)ccc1F [Example 85, 5-{[6-(3-chloro-4-fluorophenyl)pyridin-2-yl]oxy}-2-fluorophenol]"
8,> 30 µM,"CC(=O)Nc1nc2cc(-c3cccc(Oc4ccc(F)c(O)c4)n3)ccc2s1 [Example 61, N-(5-(6-(4-fluoro-3-hydroxyphenoxy)pyridin-2-yl)benzo[d]thiazol-2-yl) acetamide]"
9,10 to 30 µM,"Oc1cc(Oc2cccc(-c3ccc(C(F)(F)F)c(Cl)c3)n2)ccc1F [Example 100, 5-((6-(3-chloro-4-(trifluoromethyl)phenyl)pyridin-2-yl)oxy)-2-fluorophenol]"
10,5 to 10 µM,"CN1CCN(S(=O)(=O)c2cccc(-c3cccc(Oc4ccc(F)c(O)c4)n3)c2)CC1 [Example 43, 2-fluoro-5-((6-(3-((4-methylpiperazin-1-yl)sulfonyl)phenyl)pyridin-2-yl)oxy)phenol]"
11,≤ 5 µM,"O=S(=O)(Nc1cccc(-c2cccc(Oc3ccc(F)c(O)c3)n2)c1)c1ccccc1 [Example 18, N-(3-(6-(4-fluoro-3-hydroxyphenoxy)pyridin-2-yl)phenyl) benzenesulfonamide]"
12,10 to 30 µM,"Oc1cc(Oc2nccc(-c3cccc(O)c3F)n2)ccc1F [Example 11, 2-fluoro-3-[2-(4-fluoro-3-hydroxyphenoxy)pyrimidin-4-yl]phenol]"
13,> 30 µM,"CC(=O)Nc1cc(Oc2cccc(-c3cccc(O)c3F)n2)ccc1F [Example 106, N-(2-fluoro-5-{[6-(2-fluoro-3-hydroxyphenyl)pyridin-2-yl]oxy}phenyl)acetamide]"
14,> 30 µM,"COc1cccc(-c2cccc(Oc3ccc(F)c(C(F)F)c3)n2)c1F [Example 52, 2-[3-(difluoromethyl)-4-fluorophenoxy]-6-(2-fluoro-3-methoxyphenyl) pyridine]"
15,≤ 5 µM,"Oc1cc(Oc2cccc(-c3cc(F)cc(F)c3)n2)ccc1F [Example 89, 5-{[6-(3,5-difluorophenyl)pyridin-2-yl]oxy}-2-fluorophenol]"
16,≤ 5 µM,"Oc1cc(Oc2ccnc(-c3cccc(O)c3F)n2)ccc1F [Example 17, 2-fluoro-3-[4-(4-fluoro-3-hydroxyphenoxy)pyrimidin-2-yl]phenol]"
17,≤ 5 µM,"CNC(=O)c1cccc(-c2cccc(Oc3ccc(F)c(O)c3)n2)c1 [Example 81, 3-(6-(4-fluoro-3-hydroxyphenoxy)pyridin-2-yl)-N-methylbenzamide]"
18,≤ 5 µM,"CNc1cccc(-c2cccc(Oc3ccc(F)c(O)c3)n2)c1 [Example 54, 2-fluoro-5-({6-[3-(methylamino)phenyl]pyridin-2-yl}oxy)phenol]"
19,≤ 5 µM,"CN1CCOc2cc(-c3cccc(Oc4ccc(F)c(O)c4)n3)ccc21 [Example 33, 2-fluoro-5-((6-(4-methyl-3,4-dihydro-2H-benzo[b][1,4]oxazin-7-yl)pyridin-2-yl)oxy)phenol]"
20,> 30 µM,"COc1ccc(Oc2cccc(-c3cccc(O)c3F)n2)cc1C(=O)O [Example 35, 5-((6-(2-fluoro-3-hydroxyphenyl)pyridin-2-yl)oxy)-2-methoxybenzoic acid]"

row,IC50,SMILES
1,> 30 µM,"Oc1cc(Oc2cccc(N3CCOCC3)n2)ccc1F [Example 72, 2-fluoro-5-{[6-(morpholin-4-yl)pyridin-2-yl]oxy}phenol]"
2,5 to 10 µM,"CN(C)S(=O)(=O)c1cccc(-c2cccc(Oc3ccc(F)c(O)c3)n2)c1 [Example 20, 3-(6-(4-fluoro-3-hydroxyphenoxy)pyridin-2-yl)-N,N-dimethylbenzenesulfonamide]"
3,> 30 µM,"Oc1cc(Oc2cccc(-c3ccc(OCc4ccccc4)c(F)c3)n2)ccc1F [Example 34, 5-({6-[4-(benzyloxy)-3-fluorophenyl]pyridin-2-yl}oxy)-2-fluorophenol]"
4,> 30 µM,"CNC(=O)c1cc(Oc2cccc(-c3cccc(OC)c3F)n2)ccc1F [Example 109, 2-fluoro-5-{[6-(2-fluoro-3-methoxyphenyl)pyridin-2-yl]oxy}-N-methylbenzamide]"
5,> 30 µM,"O=C1COc2cc(-c3cccc(Oc4ccc(F)c(O)c4)n3)ccc2N1 [Example 51, 7-(6-(4-fluoro-3-hydroxyphenoxy)pyridin-2-yl)-2H-benzo[b][1,4]oxazin-3(4H)-one]"
6,≤ 5 µM,"Oc1cc(Oc2cccc(-c3cccc(Cl)c3F)n2)ccc1F [Example 86, 5-{[6-(3-chloro-2-fluorophenyl)pyridin-2-yl]oxy}-2-fluorophenol]"
7,> 30 µM,"COc1cccc(-c2cccc(Oc3ccc4cn[nH]c4c3)n2)c1F [Example 105, 6-{[6-(2-fluoro-3-methoxyphenyl)pyridin-2-yl]oxy}-1H-indazole]"
8,10 to 30 µM,"O=C(NC1CC1)c1cccc(-c2cccc(Oc3ccc(F)c(O)c3)n2)c1 [Example 63, N-cyclopropyl-3-(6-(4-fluoro-3-hydroxyphenoxy)pyridin-2-yl)benzamide]"
9,≤ 5 µM,"CNC(=O)c1ccc(-c2cccc(Oc3ccc(F)c(O)c3)n2)cc1 [Example 80, 4-(6-(4-fluoro-3-hydroxyphenoxy)pyridin-2-yl)-N-methylbenzamide]"
10,5 to 10 µM,"Oc1cccc(-c2cccc(Oc3ccc(F)c(C(F)F)c3)n2)c1F [Example 13, 3-{6-[3-(difluoromethyl)-4-fluorophenoxy]pyridin-2-yl}-2-fluorophenol]"
11,≤ 5 µM,"Oc1cc(Sc2cccc(-c3cccc(O)c3F)n2)ccc1F [Example 15, 2-fluoro-3-(6-((4-fluoro-3-hydroxyphenyl)thio)pyridin-2-yl) phenol]"
12,> 30 µM,"COc1cccc(-c2cccc(Oc3ccc(=O)n(C(F)F)c3)n2)c1F [Example 112, 1-(difluoromethyl)-5-((6-(2-fluoro-3-methoxyphenyl)pyridin-2-yl)oxy)pyridin-2(1H)-one]"
13,10 to 30 µM,"Oc1cc(Oc2cccc(-c3ccc(Cl)c(C(F)(F)F)c3)n2)ccc1F [Example 101, 5-((6-(4-chloro-3-(trifluoromethyl)phenyl)pyridin-2-yl)oxy)-2-fluorophenol]"
14,≤ 5 µM,"Oc1cc(Oc2cccc(-c3ccc(OC(F)(F)F)c(Cl)c3)n2)ccc1F [Example 66, 5-((6-(3-chloro-4-(trifluoromethoxy)phenyl)pyridin-2-yl)oxy)-2-fluorophenol]"
15,> 30 µM,"N#Cc1ccc(Oc2ccc(F)c(O)c2)nc1N1CCOCC1 [Example 62, 6-(4-fluoro-3-hydroxyphenoxy)-2-(morpholin-4-yl)pyridine-3-carbonitrile]"
16,≤ 5 µM,"Oc1cc(Oc2cccc(-c3ccc4c(c3)NCCO4)n2)ccc1F [Example 59, 5-((6-(3,4-dihydro-2H-benzo[b][1,4]oxazin-6-yl)pyridin-2-yl)oxy)-2-fluorophenol]"
17,≤ 5 µM,"Oc1cc(Oc2cccc(-c3ccc(F)c(O)c3)n2)ccc1F [Example 40, 2-fluoro-5-(6-(4-fluoro-3-hydroxyphenoxy)pyridin-2-yl)phenol]"
18,> 30 µM,"COc1cc(Oc2cccc(-c3ccc4cn[nH]c4c3)n2)ccc1F [Example 110, 6-[6-(4-fluoro-3-methoxyphenoxy)pyridin-2-yl]-2H-indazole]"
19,> 30 µM,"COc1cc(Oc2cccc(-c3ccc4c(c3)NS(=O)(=O)C4)n2)ccc1F [Example 60, 6-(6-(4-fluoro-3-methoxyphenoxy)pyridin-2-yl)-1,3-dihydrobenzo[c]isothiazole 2,2-dioxide]"
